Measurements reported in patent US20050245563A1 (Millennium Pharmaceuticals, Inc., priority 2003, published 2005).

The compounds below were run against T1, human Chk1 (GST-Chk1) (Homo sapiens, UniProt O14757) (assay: Chk1 DELFIA kinase assay (2 nM GST-Chk1, 600 μM ATP)). Conditions: Biotin-GLYRSPSMPEN-amide substrate.
T1 construct: made in house; host or cells: insect cells (baculovirus, Bac-to-Bac)
T1 sequence (O14757 1-476): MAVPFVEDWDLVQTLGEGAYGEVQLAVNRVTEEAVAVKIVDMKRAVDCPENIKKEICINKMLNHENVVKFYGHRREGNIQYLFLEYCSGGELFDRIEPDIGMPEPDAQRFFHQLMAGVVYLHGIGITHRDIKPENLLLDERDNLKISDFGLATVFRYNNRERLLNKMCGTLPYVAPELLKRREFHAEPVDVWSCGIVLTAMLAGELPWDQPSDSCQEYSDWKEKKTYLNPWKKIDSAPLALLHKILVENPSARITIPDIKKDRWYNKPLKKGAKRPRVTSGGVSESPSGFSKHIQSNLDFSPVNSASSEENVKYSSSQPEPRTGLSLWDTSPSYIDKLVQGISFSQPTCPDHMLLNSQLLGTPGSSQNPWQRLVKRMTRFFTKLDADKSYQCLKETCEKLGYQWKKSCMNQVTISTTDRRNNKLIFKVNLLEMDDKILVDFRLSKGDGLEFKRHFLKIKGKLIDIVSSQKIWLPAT
Format: biochemical
Method: Recombinant human Chk1 was expressed as a fusion protein with glutathione S-transferase at the amino-terminus (GST-Chk1) using standard baculovirus vectors and (Bac-to-Bac®) insect cell expression system purchased from GIBCO™ Invitrogen. Recombinant protein expressed in insect cells was purified using glutathione sepharose (Amersham Biotech) using standard procedures described by the manufacturer.
Chk1 DELFIA® Kinase Assay:
Assays (25 μL) utilized 2 nM GST-Chk1 containing 10 mM Tris, pH 7.5, 20% glycerol, 50 mM sodium chloride (NaCl), 0.01% Surfact-Amps® 20, 1 μM peptide stubstrate (Biotin-GLYRSPSMPEN-amide) (SEQ ID NO: 3), 01.% BSA, 2 mM DTT, 4% DMSO, 600 μM ATP, 10 MM MgCl2 and reacted for 50 minutes at room temperature. Reactions were terminated with 100 μL of Stop buffer containing 1% BSA, 10 mM Tris, pH 8.0, 150 mM NaCl, 100 mM EDTA. Stopped reactions (100 μL) were transferred to 96 well NeutrAvidin plates (Pierce) to capture the biotin-peptide substrate during a 30 minute room temperature incubation. Wells were washed and reacted with 100 μL PerkinElmer Wallac Assay Buffer containing 21.5 ng/ml anti-phospho-Ser216-Cdc25c rabbit polyclonal antibody from Cell Signaling Technology (Beverly, Mass.) and 292 ng/ml europium labeled anti-rabbit-IgG for 1 hour at room temperature. Wells were washed and europium released from the bound antibody by addition of Enhancement Solution (100 μL) (PerkinElmer Wallac) and detected using a Perkin Elmer Wallac Envison™ 2100 multilabel reader using standard manufacturer settings.

IC50, < 1 µM:
COCCc1[nH]nc2c1c(=O)n(C[C@H](C)CN)c1ccc(Cl)cc21 [Example 223, 5-(3-Amino-2R-methyl-propyl)-8-chloro-3-(2-methoxy-ethyl)-2,5-dihydro-pyrazolo[4,3-c]quinolin-4-one]
Cc1[nH]nc2c1c(=O)n(C[C@@H]1CCCNC1)c1ccc(Cl)cc21 [Example 224, 8-Chloro-3-methyl-5R-piperidin-3-ylmethyl-2,5-dihydro-pyrazolo[4,3-c]quinolin-4-one]
Cc1[nH]nc2c1c(=O)n(C[C@H]1CCCNC1)c1ccc(Cl)cc21 [Example 225, 8-Chloro-3-methyl-5S-piperidin-3-ylmethyl-2,5-dihydro-pyrazolo[4,3-c]quinolin-4-one]
COCCc1[nH]nc2c1c(=O)n(C[C@@H]1CCCNC1)c1ccc(Cl)cc21 [Example 226, 8-Chloro-3-(2-methoxy-ethyl)-5R-piperidin-3-ylmethyl-2,5-dihydro-pyrazolo[4,3-c]quinolin-4-one]
COCCc1[nH]nc2c1c(=O)n(C[C@H]1CCCNC1)c1ccc(Cl)cc21 [Example 227, 8-Chloro-3-(2-methoxy-ethyl)-5S-piperidin-3-ylmethyl-2,5-dihydro-pyrazolo[4,3-c]quinolin-4-one]
Cc1[nH]nc2c1c(=O)n(CC1CNC1)c1ccc(Cl)cc21 [Example 228, 5-Azetidin-3-ylmethyl-8-chloro-3-methyl-2,5-dihydro-pyrazolo[4,3-c]quinolin-4-one]
Cc1[nH]nc2c1c(=O)n(CCC(C)(C)N)c1ccc(Cl)cc21 [Example 229, 5-(3-Amino-3-methyl-butyl)-8-chloro-3-methyl-2,5-dihydro-pyrazolo[4,3-c]quinolin-4-one]
Cc1[nH]nc2c1c(=O)n(CC(=O)C1CCCN1)c1ccc(Cl)cc21 (centres unmarked) [Example 230, 8-Chloro-3-methyl-5-(2-oxo-2-pyrrolidin-2-yl-ethyl)-2,5-dihydro-pyrazolo[4,3-c]quinolin-4-one]
CNCCCn1c(=O)c2c(C)[nH]nc2c2cc(Cl)ccc21 [Example 231, 8-Chloro-3-methyl-5-(3-methylamino-propyl)-2,5-dihydro-pyrazolo[4,3-c]quinolin-4-one]
CNCCCn1c(=O)c2c(C)[nH]nc2c2cc(I)ccc21 [Example 234, 8-Iodo-3-methyl-5-(3-methylamino-propyl)-2,5-dihydro-pyrazolo[4,3-c]quinolin-4-one]
CNCCCn1c(=O)c2c(C)[nH]nc2c2cc(C)ccc21 [Example 235, 3,8-Dimethyl-5-(3-methylamino-propyl)-2,5-dihydro-pyrazolo[4,3-c]quinolin-4-one]
CNCCCn1c(=O)c2c(CCOC)[nH]nc2c2cc(C)ccc21 [Example 236, 3-(2-Methoxy-ethyl)-8-methyl-5-(3-methylamino-propyl)-2,5-dihydro-pyrazolo[4,3-c]quinolin-4-one]
CNCCCn1c(=O)c2c(CCOC)[nH]nc2c2cc(Cl)ccc21 [Example 237, 8-Chloro-3-(2-methoxy-ethyl)-5-(3-methylamino-propyl)-2,5-dihydro-pyrazolo[4,3-c]quinolin-4-one]
CCNCCCn1c(=O)c2c(C)[nH]nc2c2cc(Cl)ccc21 [Example 238, 8-Chloro-5-(3-ethylamino-propyl)-3-methyl-2,5-dihydro-pyrazolo[4,3-c]quinolin-4-one]
CCCNCCCn1c(=O)c2c(C)[nH]nc2c2cc(Cl)ccc21 [Example 239, 8-Chloro-3-methyl-5-(3-propylamino-propyl)-2,5-dihydro-pyrazolo[4,3-c]quinolin-4-one]
Cc1[nH]nc2c1c(=O)n(CCCNCc1cccs1)c1ccc(Cl)cc21 [Example 242, 8-Chloro-3-methyl-5-{3-[(thiophen-2-ylmethyl)-amino]-propyl}-2,5-dihydro-pyrazolo[4,3-c]quinolin-4-one]
Cc1[nH]nc2c1c(=O)n(CCCNCc1ccc[nH]1)c1ccc(Cl)cc21 [Example 243, 8-Chloro-3-methyl-5-{3-[(1H-pyrrol-2-ylmethyl)-amino]-propyl}2,5-dihydro-pyrazolo[4,3-c]quinolin-4-one]
Cc1[nH]nc2c1c(=O)n(CCCNCc1ncc[nH]1)c1ccc(Cl)cc21 [Example 244, 8-Chloro-5-{3-[(1H-imidazol-2-ylmethyl)-amino]-propyl}-3-methyl-2,5-dihydro-pyrazolo[4,3-c]quinolin-4-one]
Cc1[nH]nc2c1c(=O)n(CC(O)C1CCCN1)c1ccc(Cl)cc21 (centres unmarked) [Example 246, 8-Chloro-5-(2-hydroxy-2-pyrrolidin-2-yl-ethyl)-3-methyl-2,5-dihydro-pyrazolo[4,3-c]quinolin-4-one]
CNCC(O)Cn1c(=O)c2c(C)[nH]nc2c2cc(Cl)ccc21 (centres unmarked) [Example 247, 8-Chloro-5-(2-hydroxy-3-methylamino-propyl)-3-methyl-2,5-dihydro-pyrazolo[4,3-c]quinolin-4-one]
CCNCC(O)CCn1c(=O)c2c(C)[nH]nc2c2cc(Cl)ccc21 (centres unmarked) [Example 248, 8-Chloro-5-(4-ethylamino-3-hydroxy-butyl)-3-methyl-2,5-dihydro-pyrazolo[4,3-c]quinolin-4-one]
CNCC(O)CCn1c(=O)c2c(C)[nH]nc2c2cc(Cl)ccc21 (centres unmarked) [Example 249, 8-Chloro-5-(3-hydroxy-4-methylamino-butyl)-3-methyl-2,5-dihydro-pyrazolo[4,3-c]quinolin-4-one]
CCCNCC(O)CCn1c(=O)c2c(C)[nH]nc2c2cc(Cl)ccc21 (centres unmarked) [Example 250, 8-Chloro-5-(3-hydroxy-4-propylamino-butyl)-3-methyl-2,5-dihydro-pyrazolo[4,3-c]quinolin-4-one]
Cc1[nH]nc2c1c(=O)n(CCCN)c1ccc(OCCCN)cc21 [Example 255, 8-(3-Amino-propoxy)-5-(3-amino-propyl)-3-methyl-2,5-dihydro-pyrazolo[4,3-c]quinolin-4-one]
CCOc1ccc2c(c1)c1n[nH]c(C)c1c(=O)n2CCCN [Example 256, 5-(3-Amino-propyl)-8-ethoxy-3methyl-2,5-dihydro-pyrazolo[4,3-c]quinolin-4-one]
Cc1[nH]nc2c1c(=O)n(CCCN)c1ccc(OCc3ccccc3)cc21 [Example 257, 5-(3-Amino-propyl)-8-benzyloxy-3-methyl-2,5-dihydro-pyrazolo[4,3-c]quinolin-4-one]
CCCOc1ccc2c(c1)c1n[nH]c(C)c1c(=O)n2CCCN [Example 258, 5-(3-Amino-propyl)-3-methyl-8-propoxy-2,5-dihydro-pyrazolo[4,3-c]quinolin-4-one]
Cc1[nH]nc2c1c(=O)n(CCCN)c1ccc(OCC(C)C)cc21 [Example 259, 5-(3-Amino-propyl)-8-isobutoxy-3-methyl-2,5-dihydro-pyrazolo[4,3-c]quinolin-4-one]
Cc1[nH]nc2c1c(=O)n(CCCN)c1ccc(N)cc21 [Example 260, 8-Amino-5-(3-amino-propyl)-3-methyl-2,5-dihydro-pyrazolo[4,3-c]quinolin-4-one]
CC(=O)Nc1ccc2c(c1)c1n[nH]c(C)c1c(=O)n2CCCN [Example 261, N-[5-(3-Amino-propyl)-3-methyl-4-oxo-4,5-dihydro-2H-pyrazolo[4,3-c]quinolin-8-yl]-acetamide]
Cc1[nH]nc2c1c(=O)n(CCCN)c1ccc(NC(=O)[C@@H]3CCCN3)cc21 [Example 262, Pyrrolidine-2S-carboxylic acid [5-(3-amino-propyl)-3-methyl-4-oxo-4,5-dihydro-2H-pyrazolo[4,3-c]quinolin-8-yl]-amide]
Cc1[nH]nc2c1c(=O)n(CCCN)c1ccc(NC(=O)[C@H]3CCCN3)cc21 [Example 263, Pyrrolidine-2R-carboxylic acid [5-(3-amino-propyl)-3-methyl-4-oxo-4,5-dihydro-2H-pyrazolo[4,3-c]quinolin-8-yl]-amide]
